Assay results reported in patent US20220151236A1, “NOVEL OXADIAZOLE COMPOUNDS FOR CONTROLLING OR PREVENTING PHYTOPATHOGENIC FUNGI” (PI INDUSTRIES LTD., priority 2019, published 2022).
Where a name gives a salt, the structure may show the parent alone.

System: Phakopsora pachyrhizi
Assay: Phakopsora pachyrhizi Test on Soybean (preventive activity, greenhouse)
Assay type: in vivo
Conditions: preventive spray on young Soybean plants, inoculated one day after treatment, rated 3, 7, 10 and 15 days after application, read-out: Efficacy (% control), disease severity compared to the untreated check
Procedure: Compounds were dissolved in 2% dimethyl sulfoxide/acetone and then mixed with water containing an emulsifier to a calibrated spray volume of 50 mL. This 50 mL spray solution was poured into spray bottles for further applications. To test the preventive activity of compounds, healthy young Soybean plants raised in the greenhouse were sprayed with the active compound preparation at the stated application rates inside the spray cabinets using hollow cone nozzles. One day after treatment, the plants were inoculated with a spore suspension containing 2×10^5 Phakopsora pachyrhizi conidia. The inoculated plants were then kept in a greenhouse chamber at 22-24° C. temperature and 80-90% relative humidity for disease expression. A visual assessment of the compound's performance was carried out by rating the disease severity (0-100% scale) on treated plants 3, 7, 10 and 15 days after application. Efficacy (% control) of the compounds was calculated by comparing the disease rating in the treatment with the one of the untreated control. The sprayed plants were also assessed for plant compatibility by recording symptoms like necrosis, chlorosis and stunting.

Compound	pest or weed control at 500 ppm [%]
O=C(Nc1ccc(F)cc1F)c1cn2cc(-c3noc(C(F)(F)F)n3)ccc2n1 [Compound 17, N-(2,4-difluorophenyl)-6-(5-(trifluoromethyl)-1,2,4-oxadiazol-3-yl)imidazo[1,2-a]pyridine-2-carboxamide]	≥ 70
O=C(Nc1ccc(Cl)cc1)c1cn2cc(-c3noc(C(F)(F)F)n3)ccc2n1 [Compound 18, N-(4-chlorophenyl)-6-(5-(trifluoromethyl)-1,2,4-oxadiazol-3-yl)imidazo[1,2-a]pyridine-2-carboxamide]	≥ 70
Cc1ccc(NC(=O)c2cn3cc(-c4noc(C(F)(F)F)n4)ccc3n2)cc1 [Compound 19, N-(p-tolyl)-6-(5-(trifluoromethyl)-1,2,4-oxadiazol-3-yl)imidazo[1,2-a]pyridine-2-carboxamide]	≥ 70
O=C(Nc1ccccc1F)c1cn2cc(-c3noc(C(F)(F)F)n3)ccc2n1 [Compound 20, N-(2-fluorophenyl)-6-(5-(trifluoromethyl)-1,2,4-oxadiazol-3-yl)imidazo[1,2-a]pyridine-2-carboxamide]	≥ 70
CNC(=O)c1cn2cc(-c3noc(C(F)(F)F)n3)ccc2n1 [Compound 21, N-methyl-6-(5-(trifluoromethyl)-1,2,4-oxadiazol-3-yl)imidazo[1,2-a]pyridine-2-carboxamide]	≥ 70
COc1ccc(NC(=O)c2cn3cc(-c4noc(C(F)(F)F)n4)ccc3n2)cc1 [Compound 22, N-(4-methoxyphenyl)-6-(5-(trifluoromethyl)-1,2,4-oxadiazol-3-yl)imidazo[1,2-a]pyridine-2-carboxamide]	≥ 70
O=C(NCc1ccccc1)c1cn2cc(-c3noc(C(F)(F)F)n3)ccc2n1 [Compound 23, N-benzyl-6-(5-(trifluoromethyl)-1,2,4-oxadiazol-3-yl)imidazo[1,2-a]pyridine-2-carboxamide]	≥ 70
O=C(Nc1cccc(F)c1)c1cn2cc(-c3noc(C(F)(F)F)n3)ccc2n1 [Compound 24, N-(3-fluorophenyl)-6-(5-(trifluoromethyl)-1,2,4-oxadiazol-3-yl)imidazo[1,2-a]pyridine-2-carboxamide]	≥ 70
CN(C)C(=O)c1cn2cc(-c3noc(C(F)(F)F)n3)ccc2n1 [Compound 25, N,N-dimethyl-6-(5-(trifluoromethyl)-1,2,4-oxadiazol-3-yl)imidazo[1,2-a]pyridine-2-carboxamide]	≥ 70
O=C(Nc1ccc(Cl)cc1F)c1cn2cc(-c3noc(C(F)(F)F)n3)ccc2n1 [Compound 26, N-(4-chloro-2-fluorophenyl)-6-(5-(trifluoromethyl)-1,2,4-oxadiazol-3-yl)imidazo[1,2-a]pyridine-2-carboxamide]	≥ 70
N#Cc1ccc(NC(=O)c2cn3cc(-c4noc(C(F)(F)F)n4)ccc3n2)cc1 [Compound 27, N-(4-cyanophenyl)-6-(5-(trifluoromethyl)-1,2,4-oxadiazol-3-yl)imidazo[1,2-a]pyridine-2-carboxamide]	≥ 70
COc1ccccc1NC(=O)c1cn2cc(-c3noc(C(F)(F)F)n3)ccc2n1 [Compound 28, N-(2-methoxyphenyl)-6-(5-(trifluoromethyl)-1,2,4-oxadiazol-3-yl)imidazo[1,2-a]pyridine-2-carboxamide]	≥ 70
O=C(Nc1cccnc1)c1cn2cc(-c3noc(C(F)(F)F)n3)ccc2n1 [Compound 29, N-(pyridin-3-yl)-6-(5-(trifluoromethyl)-1,2,4-oxadiazol-3-yl)imidazo[1,2-a]pyridine-2-carboxamide]	≥ 70
O=C(Nc1c(F)cccc1F)c1cn2cc(-c3noc(C(F)(F)F)n3)ccc2n1 [Compound 30, N-(2,6-difluorophenyl)-6-(5-(trifluoromethyl)-1,2,4-oxadiazol-3-yl)imidazo[1,2-a]pyridine-2-carboxamide]	≥ 70
O=C(NCc1cccc(F)c1)c1cn2cc(-c3noc(C(F)(F)F)n3)ccc2n1 [Compound 31, N-(3-fluorobenzyl)-6-(5-(trifluoromethyl)-1,2,4-oxadiazol-3-yl)imidazo[1,2-a]pyridine-2-carboxamide]	≥ 70
O=C(Nc1ccncc1)c1cn2cc(-c3noc(C(F)(F)F)n3)ccc2n1 [Compound 32, N-(pyridin-4-yl)-6-(5-(trifluoromethyl)-1,2,4-oxadiazol-3-yl)imidazo[1,2-a]pyridine-2-carboxamide]	≥ 70
COCCNC(=O)c1cn2ccc(-c3noc(C(F)(F)F)n3)cc2n1 [Compound 34, N-(2-methoxyethyl)-7-(5-(trifluoromethyl)-1,2,4-oxadiazol-3-yl)imidazo[1,2-a]pyridine-2-carboxamide]	≥ 70
CC(C)CNC(=O)c1cn2ccc(-c3noc(C(F)(F)F)n3)cc2n1 [Compound 35, N-isobutyl-7-(5-(trifluoromethyl)-1,2,4-oxadiazol-3-yl)imidazo[1,2-a]pyridine-2-carboxamide]	≥ 70
CC(C)(C)CNC(=O)c1cn2ccc(-c3noc(C(F)(F)F)n3)cc2n1 [Compound 36, N-neopentyl-7-(5-(trifluoromethyl)-1,2,4-oxadiazol-3-yl)imidazo[1,2-a]pyridine-2-carboxamide]	≥ 70
O=C(NCc1ccc(Cl)cc1)c1cn2ccc(-c3noc(C(F)(F)F)n3)cc2n1 [Compound 38, N-(4-chlorobenzyl)-7-(5-(trifluoromethyl)-1,2,4-oxadiazol-3-yl)imidazo[1,2-a]pyridine-2-carboxamide]	≥ 70
O=C(NCc1cccc(Cl)c1)c1cn2ccc(-c3noc(C(F)(F)F)n3)cc2n1 [Compound 40, N-(3-chlorobenzyl)-7-(5-(trifluoromethyl)-1,2,4-oxadiazol-3-yl)imidazo[1,2-a]pyridine-2-carboxamide]	≥ 70
COc1cccc(CNC(=O)c2cn3ccc(-c4noc(C(F)(F)F)n4)cc3n2)c1 [Compound 41, N-(3-methoxybenzyl)-7-(5-(trifluoromethyl)-1,2,4-oxadiazol-3-yl)imidazo[1,2-a]pyridine-2-carboxamide]	≥ 70
O=C(NCc1ccccc1F)c1cn2ccc(-c3noc(C(F)(F)F)n3)cc2n1 [Compound 42, N-(2-fluorobenzyl)-7-(5-(trifluoromethyl)-1,2,4-oxadiazol-3-yl)imidazo[1,2-a]pyridine-2-carboxamide]	≥ 70
CN(C)c1ccc(CNC(=O)c2cn3ccc(-c4noc(C(F)(F)F)n4)cc3n2)cc1 [Compound 43, N-(4-(dimethylamino)benzyl)-7-(5-(trifluoromethyl)-1,2,4-oxadiazol-3-yl)imidazo[1,2-a]pyridine-2-carboxamide]	≥ 70
O=C(NCc1ccc(Cl)c(Cl)c1)c1cn2ccc(-c3noc(C(F)(F)F)n3)cc2n1 [Compound 44, N-(3,4-dichlorobenzyl)-7-(5-(trifluoromethyl)-1,2,4-oxadiazol-3-yl)imidazo[1,2-a]pyridine-2-carboxamide]	≥ 70
CCOC(=O)c1cn2ccc(-c3noc(C(F)(F)F)n3)cc2n1 [Compound 45, ethyl 7-(5-(trifluoromethyl)-1,2,4-oxadiazol-3-yl)imidazo[1,2-a]pyridine-2-carboxylate hydrobromide]	≥ 70
